# Test results published in US12252701B2, “Chimeric antigen receptor T cell therapy” (KITE PHARMA, INC., priority 2020, dated 2025).
# Tests used:
# [1] = test system: Nalm-6 luc; assay: CAR-T cell killing assay (luciferase viability of tumor cells)
# [2] = test system: CAR-T cells; assay: CAR-T cell expansion assay (KIP-1 or CD3/CD28 stimulation); conditions: for % viabili.: CD3/CD28 stimulation; for % viabi.: KIP-1 stimulation
# [3] = test system: NALM6.GFP.LUC.CD19 target cells; assay: Serial killing assay; format: cell-based, human
# Experimental: CD19 CAR-T cells were thawed in RPMI media supplemented with HEPES, Penicillin/Streptomycin/L-Glutamine and 10% FBS and rested overnight. The following day, drugs were serially diluted and prepared in 96-well plates. Rested T cells were counted and normalized so that 25,000 or 8,333 T cells were plated with 25,000 NALM6.GFP.LUC.CD19 target cells (1:1 or 1:3 Effector:Target ratio) in the prepared 96-well plates. At 16 hour post-incubation and every 3-4 days, T cell killing of targets was measured via luciferase detection. D-luciferin substrate was added to the co-culture wells at a final concentration of 0.14 mg/mL and plates were incubated at 37° C. in the dark for 10 minutes. Luminescent signal was read immediately after in a VarioSkan™ LUX microplate reader. T cell-mediated cytotoxicity was calculated as follows: % Cytotoxicity=[1−luciferase signal of (sample of interest/target alone control)]*100. Afterwards, co-cultures were stained with LIVE/DEAD and antibodies against CD4, CD8 and KIP-1 and then washed. Cells were then analyzed and quantified via the Attune NxT flow cytometer. T cells were then repeatedly stimulated with fresh 25,000 target cells, and this process was repeated every 3-4 days.
# [4] = cited from earlier work
structure (smiles),measurement,setting,value
CCS(=O)(=O)N1CC(CC#N)(n2cc(-c3ncnc4[nH]ccc34)cn2)C1 [baricitinib],Mean tumor cell death (%),"[1]; E:T ratio 1:1, dose 10 nM",97.9%
same,Mean tumor cell death (%),"[1]; E:T ratio 1:1, dose 20 nM",97.5%
same,Mean tumor cell death (%),"[1]; E:T ratio 1:1, dose 40 nM",85.7%
same,Mean tumor cell death (%),"[1]; E:T ratio 1:1, dose 60 nM",96.2%
same,Mean tumor cell death (%),"[1]; E:T ratio 1:1, dose 80 nM",96%
same,Mean tumor cell death (%),"[1]; E:T ratio 1:1, dose 100 nM",93.1%
same,Mean tumor cell death (%),"[1]; E:T ratio 1:3, dose 10 nM",65.6%
same,Mean tumor cell death (%),"[1]; E:T ratio 1:3, dose 20 nM",65%
same,Mean tumor cell death (%),"[1]; E:T ratio 1:3, dose 40 nM",67.4%
same,Mean tumor cell death (%),"[1]; E:T ratio 1:3, dose 60 nM",59%
same,Mean tumor cell death (%),"[1]; E:T ratio 1:3, dose 80 nM",55%
same,Mean tumor cell death (%),"[1]; E:T ratio 1:3, dose 100 nM",31.1%
same,Mean tumor cell death (%),"[1]; E:T ratio 1:9, dose 10 nM",25.4%
same,Mean tumor cell death (%),"[1]; E:T ratio 1:9, dose 20 nM",27.6%
same,Mean tumor cell death (%),"[1]; E:T ratio 1:9, dose 40 nM",26.1%
same,Mean tumor cell death (%),"[1]; E:T ratio 1:9, dose 60 nM",21.1%
same,Mean tumor cell death (%),"[1]; E:T ratio 1:9, dose 80 nM",3.97%
same,Mean tumor cell death (%),"[1]; E:T ratio 1:9, dose 100 nM",5.5%
same,% viability,"[2]; CD3/CD28, dose 5 nM, day 4",72.9%
same,% viability,"[2]; CD3/CD28, dose 5 nM, day 8",55.7%
same,% viability,"[2]; CD3/CD28, dose 5 nM, day 12",83.1%
same,% viability,"[2]; CD3/CD28, dose 10 nM, day 4",70.7%
same,% viability,"[2]; CD3/CD28, dose 10 nM, day 12",84.7%
same,% viabili.,"[2]; 10 nM, Day 0",84%
same,% viabili.,"[2]; 10 nM, Day 4",82.3%
same,% viabili.,"[2]; 10 nM, Day 8",90.2%
same,% viabili.,"[2]; 10 nM, Day 12",80.2%
same,% viabili.,"[2]; 20 nM, Day 0",84%
same,% viabili.,"[2]; 20 nM, Day 4",86.4%
same,% viabili.,"[2]; 20 nM, Day 8",82.5%
same,% viabili.,"[2]; 20 nM, Day 12",76.7%
same,% viabili.,"[2]; 40 nM, Day 0",84%
same,% viabili.,"[2]; 40 nM, Day 4",89.8%
same,% viabili.,"[2]; 40 nM, Day 8",85.7%
same,% viabili.,"[2]; 40 nM, Day 12",74.7%
same,% viabili.,"[2]; 60 nM, Day 0",84%
same,% viabili.,"[2]; 60 nM, Day 4",91.7%
same,% viabili.,"[2]; 60 nM, Day 8",91.3%
same,% viabili.,"[2]; 60 nM, Day 12",71.5%
same,% viabili.,"[2]; 80 nM, Day 0",84%
same,% viabili.,"[2]; 80 nM, Day 4",91.1%
same,% viabili.,"[2]; 80 nM, Day 8",83.6%
same,% viabili.,"[2]; 80 nM, Day 12",67.7%
same,% viabili.,"[2]; 100 nM, Day 0",84%
same,% viabili.,"[2]; 100 nM, Day 4",86.8%
same,% viabili.,"[2]; 100 nM, Day 8",73.3%
same,% viabili.,"[2]; 100 nM, Day 12",76.3%
same,% viability,"[2]; KIP-1, dose 10 nM, day 8",58.7%
same,% viabi.,"[2]; 10 nM, Day 0",84%
same,% viabi.,"[2]; 10 nM, Day 4",64.7%
same,% viabi.,"[2]; 10 nM, Day 8",55.2%
same,% viabi.,"[2]; 10 nM, Day 12",70.4%
same,% viabi.,"[2]; 20 nM, Day 0",84%
same,% viabi.,"[2]; 20 nM, Day 4",61.3%
same,% viabi.,"[2]; 20 nM, Day 8",78%
same,% viabi.,"[2]; 20 nM, Day 12",73.5%
same,% viabi.,"[2]; 40 nM, Day 0",84%
same,% viabi.,"[2]; 40 nM, Day 4",65%
same,% viabi.,"[2]; 40 nM, Day 8",77.8%
same,% viabi.,"[2]; 40 nM, Day 12",68.8%
same,% viabi.,"[2]; 60 nM, Day 0",84%
same,% viabi.,"[2]; 60 nM, Day 4",57.8%
same,% viabi.,"[2]; 60 nM, Day 8",57.6%
same,% viabi.,"[2]; 60 nM, Day 12",70.8%
same,% viabi.,"[2]; 80 nM, Day 0",84%
same,% viabi.,"[2]; 80 nM, Day 4",66.2%
same,% viabi.,"[2]; 80 nM, Day 8",69.4%
same,% viabi.,"[2]; 80 nM, Day 12",69.5%
same,% viabi.,"[2]; 100 nM, Day 0",84%
same,% viabi.,"[2]; 100 nM, Day 4",67.7%
same,% viabi.,"[2]; 100 nM, Day 8",78.1%
same,% viabi.,"[2]; 100 nM, Day 12",65.2%
same,reduction of clinical dosing required to avoid negative impacts on product performance,[3],roughly 4 fold
same,Cmax,"[4]; clinical dosing 2 mg daily, cell prints (nM)",45.7 nM
same,Protein binding,"[4]; plasma protein binding, reported",50%
